Assay [1] concerns the target hNav1.7 (Homo sapiens, UniProt Q15858). Briefly: cell-based. Type of assay: cell-based. The note with it: IonWorks Quattro, Use; read-out: IWQ Use Nav1.7. A general note: In patch-clamp work, channel activity is measured electrically.
Assay [2] concerns the target hNav1.3 (Homo sapiens, UniProt Q9NY46). Briefly: cell-based. The note with it: IonWorks Quattro, hNav1.3, read-out: IWQ Use Nav1.3.

Where two headings read alike, the source gives them in different places. Positions of bridges follow the written chain, without caps; N, C: chain ends. Residues, ends and D or L forms follow the SMILES beside them.

Chain of hNav1.3 (Q9NY46 whole entry, looked up): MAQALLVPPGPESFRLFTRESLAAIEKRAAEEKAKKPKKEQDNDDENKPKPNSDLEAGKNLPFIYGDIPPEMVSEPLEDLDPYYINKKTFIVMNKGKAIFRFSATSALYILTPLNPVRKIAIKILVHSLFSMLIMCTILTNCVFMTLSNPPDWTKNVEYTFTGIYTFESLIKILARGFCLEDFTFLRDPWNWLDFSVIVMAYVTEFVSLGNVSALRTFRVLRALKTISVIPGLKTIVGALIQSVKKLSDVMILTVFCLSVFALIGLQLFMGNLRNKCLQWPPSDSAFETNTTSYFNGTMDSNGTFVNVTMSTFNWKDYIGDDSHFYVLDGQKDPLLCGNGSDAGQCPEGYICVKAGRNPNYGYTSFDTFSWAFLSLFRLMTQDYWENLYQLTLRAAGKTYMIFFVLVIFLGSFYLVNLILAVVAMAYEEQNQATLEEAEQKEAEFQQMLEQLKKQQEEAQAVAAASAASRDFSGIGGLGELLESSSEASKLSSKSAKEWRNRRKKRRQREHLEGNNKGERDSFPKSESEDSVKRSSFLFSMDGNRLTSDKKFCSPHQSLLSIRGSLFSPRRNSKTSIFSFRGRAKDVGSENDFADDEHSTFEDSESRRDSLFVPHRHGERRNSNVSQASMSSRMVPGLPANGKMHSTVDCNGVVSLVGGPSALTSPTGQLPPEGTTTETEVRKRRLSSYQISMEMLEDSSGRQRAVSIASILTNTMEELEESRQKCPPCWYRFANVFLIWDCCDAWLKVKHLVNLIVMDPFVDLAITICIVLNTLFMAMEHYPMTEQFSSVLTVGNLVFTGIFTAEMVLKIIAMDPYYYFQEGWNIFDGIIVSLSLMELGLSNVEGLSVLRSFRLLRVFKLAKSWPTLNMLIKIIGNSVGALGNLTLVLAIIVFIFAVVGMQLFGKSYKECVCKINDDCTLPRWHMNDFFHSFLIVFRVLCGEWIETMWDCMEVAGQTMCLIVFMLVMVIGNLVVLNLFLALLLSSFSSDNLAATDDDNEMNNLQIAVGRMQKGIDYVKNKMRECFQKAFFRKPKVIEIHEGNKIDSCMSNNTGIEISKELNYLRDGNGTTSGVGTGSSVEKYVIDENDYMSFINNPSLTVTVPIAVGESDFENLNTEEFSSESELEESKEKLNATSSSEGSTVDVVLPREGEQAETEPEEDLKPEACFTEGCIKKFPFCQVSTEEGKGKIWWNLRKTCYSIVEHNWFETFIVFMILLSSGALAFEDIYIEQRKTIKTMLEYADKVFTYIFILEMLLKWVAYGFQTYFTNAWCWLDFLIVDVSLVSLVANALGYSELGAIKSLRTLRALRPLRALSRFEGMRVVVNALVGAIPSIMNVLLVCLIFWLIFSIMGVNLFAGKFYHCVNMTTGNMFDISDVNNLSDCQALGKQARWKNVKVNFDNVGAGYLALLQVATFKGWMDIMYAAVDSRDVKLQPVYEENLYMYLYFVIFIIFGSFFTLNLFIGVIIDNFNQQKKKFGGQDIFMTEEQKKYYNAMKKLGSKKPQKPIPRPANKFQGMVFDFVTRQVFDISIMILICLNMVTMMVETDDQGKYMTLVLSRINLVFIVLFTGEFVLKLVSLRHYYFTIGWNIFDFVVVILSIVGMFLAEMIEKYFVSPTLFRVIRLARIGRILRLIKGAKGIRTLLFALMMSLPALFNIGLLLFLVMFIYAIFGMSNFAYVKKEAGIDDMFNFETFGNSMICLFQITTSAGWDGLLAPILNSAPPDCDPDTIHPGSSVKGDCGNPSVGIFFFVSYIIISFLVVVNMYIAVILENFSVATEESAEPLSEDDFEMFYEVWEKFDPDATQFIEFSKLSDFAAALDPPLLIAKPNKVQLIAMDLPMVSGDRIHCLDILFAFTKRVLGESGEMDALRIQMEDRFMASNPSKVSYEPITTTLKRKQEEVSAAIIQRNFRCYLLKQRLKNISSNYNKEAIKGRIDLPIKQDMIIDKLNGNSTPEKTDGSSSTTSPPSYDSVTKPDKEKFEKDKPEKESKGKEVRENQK
Chain of hNav1.7 (Q15858 whole entry, looked up): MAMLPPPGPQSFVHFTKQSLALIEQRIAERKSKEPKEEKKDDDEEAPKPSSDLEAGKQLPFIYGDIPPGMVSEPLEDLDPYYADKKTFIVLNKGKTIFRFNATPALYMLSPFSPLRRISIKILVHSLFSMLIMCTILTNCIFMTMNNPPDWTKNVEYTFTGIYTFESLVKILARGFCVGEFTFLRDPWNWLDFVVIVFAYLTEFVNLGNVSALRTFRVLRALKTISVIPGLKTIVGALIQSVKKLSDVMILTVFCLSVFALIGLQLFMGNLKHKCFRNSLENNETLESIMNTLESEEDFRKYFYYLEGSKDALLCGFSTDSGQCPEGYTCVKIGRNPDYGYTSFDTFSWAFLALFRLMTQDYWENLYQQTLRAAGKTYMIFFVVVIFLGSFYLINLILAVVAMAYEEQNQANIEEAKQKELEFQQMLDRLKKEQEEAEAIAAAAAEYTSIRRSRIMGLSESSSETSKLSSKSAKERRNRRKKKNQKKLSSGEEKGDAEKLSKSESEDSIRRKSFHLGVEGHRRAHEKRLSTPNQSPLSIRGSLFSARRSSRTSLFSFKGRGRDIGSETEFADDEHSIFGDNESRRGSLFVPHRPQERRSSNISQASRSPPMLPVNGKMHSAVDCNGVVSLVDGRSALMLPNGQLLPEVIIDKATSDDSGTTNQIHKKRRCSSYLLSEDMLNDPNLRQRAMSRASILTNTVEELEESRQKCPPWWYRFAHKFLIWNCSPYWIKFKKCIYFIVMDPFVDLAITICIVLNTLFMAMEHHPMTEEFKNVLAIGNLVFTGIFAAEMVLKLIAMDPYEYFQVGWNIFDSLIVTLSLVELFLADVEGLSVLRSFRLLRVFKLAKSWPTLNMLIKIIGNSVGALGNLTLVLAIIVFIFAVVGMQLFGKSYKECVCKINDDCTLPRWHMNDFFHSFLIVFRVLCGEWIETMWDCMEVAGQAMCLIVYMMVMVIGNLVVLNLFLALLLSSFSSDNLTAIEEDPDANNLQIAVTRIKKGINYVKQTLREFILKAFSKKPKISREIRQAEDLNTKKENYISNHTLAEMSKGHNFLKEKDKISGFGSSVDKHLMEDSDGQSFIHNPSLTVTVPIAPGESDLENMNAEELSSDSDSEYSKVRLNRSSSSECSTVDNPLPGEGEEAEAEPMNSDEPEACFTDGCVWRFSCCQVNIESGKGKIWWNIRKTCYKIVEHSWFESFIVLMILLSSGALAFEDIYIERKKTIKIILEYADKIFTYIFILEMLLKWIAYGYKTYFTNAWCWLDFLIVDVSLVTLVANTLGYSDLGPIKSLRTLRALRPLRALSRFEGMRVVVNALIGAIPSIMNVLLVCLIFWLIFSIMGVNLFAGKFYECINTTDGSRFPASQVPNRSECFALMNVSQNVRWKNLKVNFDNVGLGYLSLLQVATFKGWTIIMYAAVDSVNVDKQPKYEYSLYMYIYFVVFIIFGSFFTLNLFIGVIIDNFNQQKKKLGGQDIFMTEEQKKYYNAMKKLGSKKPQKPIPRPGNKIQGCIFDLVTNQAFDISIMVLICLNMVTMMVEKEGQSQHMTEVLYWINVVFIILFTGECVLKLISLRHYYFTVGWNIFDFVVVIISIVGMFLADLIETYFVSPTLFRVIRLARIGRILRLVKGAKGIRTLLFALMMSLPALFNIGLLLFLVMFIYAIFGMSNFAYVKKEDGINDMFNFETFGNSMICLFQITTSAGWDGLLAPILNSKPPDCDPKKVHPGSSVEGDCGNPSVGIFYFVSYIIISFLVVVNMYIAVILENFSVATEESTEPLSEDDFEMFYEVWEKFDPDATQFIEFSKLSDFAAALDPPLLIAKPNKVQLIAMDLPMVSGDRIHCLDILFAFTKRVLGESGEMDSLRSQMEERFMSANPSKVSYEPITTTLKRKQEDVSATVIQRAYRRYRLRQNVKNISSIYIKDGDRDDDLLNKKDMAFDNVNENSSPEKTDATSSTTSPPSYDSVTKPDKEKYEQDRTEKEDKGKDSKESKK

On to `CSCC[C@@H]1NC(=O)[C@H](Cc2ccccc2)NC(=O)CNC(=O)[C@H](CC(C)C)NC(=O)[C@@H](NC(=O)[C@@H](N)CC(=O)O)CSSC[C@@H]2NC(=O)[C@@H]3CSSC[C@@H](C(=O)N[C@@H](CCCCN)C(=O)N[C@@H](Cc4ccc(O)cc4)C(=O)N[C@H](C(=O)N[C@@H](Cc4ccccc4)C(N)=O)C(C)C)NC(=O)[C@H](Cc4c[nH]c5ccccc45)NC(=O)[C@H](CCCCN)NC(=O)[C@H](Cc4c[nH]cn4)NC(=O)[C@H]([C@@H](C)O)NC(=O)[C@H](CCCNC(=N)N)NC(=O)[C@H](CO)NC(=O)[C@H](CSSC[C@H](NC(=O)[C@H](CCCCN)NC(=O)[C@H](CCCNC(=N)N)NC1=O)C(=O)N[C@@H](Cc1c[nH]cn1)C(=O)N1CCC[C@H]1C(=O)N[C@@H](CC(=O)O)C(=O)N[C@@H](CC(N)=O)C(=O)N[C@@H](CC(=O)O)C(=O)N[C@@H](CCCCN)C(=O)N3)NC(=O)[C@H](C(C)C)NC(=O)[C@H](CC(C)C)NC(=O)[C@H](CC(N)=O)NC(=O)[C@@H]1CCCN1C(=O)[C@H](CCCNC(=N)N)NC2=O` [compound 304] (H-DCLGFMRKCHPDNDKCCRPNLVCSRTHKWCKYVF-NH2; disulfide 2-17, 9-23, 16-30), for which, in assay [1], the IC50 amounted to 0.05 µM.
`CC[C@H](C)[C@@H]1NC(=O)[C@@H]2CSSC[C@@H]3NC(=O)[C@H](C(C)C)NC(=O)[C@H](CC(C)C)NC(=O)[C@H](CC(N)=O)NC(=O)[C@@H]4CCCN4C(=O)[C@H](CCCNC(=N)N)NC(=O)[C@H](CSSC[C@H](NC(=O)[C@@H](N)CC(=O)O)C(=O)N[C@@H](CC(C)C)C(=O)NCC(=O)N[C@H](C)C(=O)N[C@@H](CC(C)C)C(=O)N[C@@H](CCCNC(=N)N)C(=O)N[C@@H](CCCCN)C(=O)N2)NC(=O)[C@H](CSSC[C@@H](C(=O)N[C@@H](CCCCN)C(=O)N[C@@H](Cc2ccc(O)cc2)C(=O)N[C@H](C(=O)N[C@@H](Cc2ccccc2)C(N)=O)C(C)C)NC(=O)[C@H](Cc2c[nH]c4ccccc24)NC(=O)[C@H](CCCCN)NC(=O)[C@H](Cc2c[nH]cn2)NC(=O)[C@H]([C@@H](C)O)NC(=O)[C@H](CCCNC(=N)N)NC(=O)[C@H](CO)NC3=O)NC(=O)[C@H](CCCCN)NC(=O)[C@H](CC(=O)O)NC(=O)[C@H](CC(N)=O)NC(=O)[C@H](CC(=O)O)NC(=O)[C@@H]2CCCN2C1=O` [compound 633]: the IC50 in assay [2] (use-dependent protocol) amounted to 11.5 µM.
Regarding `CC[C@H](C)[C@@H]1NC(=O)[C@@H]2CSSC[C@@H]3NC(=O)[C@H](C(C)C)NC(=O)[C@H](CC(C)C)NC(=O)[C@H](CC(N)=O)NC(=O)[C@@H]4CCCN4C(=O)[C@H](CCCNC(=N)N)NC(=O)[C@H](CSSC[C@H](NC(=O)[C@@H](N)CC(=O)O)C(=O)N[C@@H](CC(C)C)C(=O)NCC(=O)N[C@@H](C)C(=O)N[C@@H](Cc4ccccc4)C(=O)N[C@@H](CCCNC(=N)N)C(=O)N[C@@H](CCCCN)C(=O)N2)NC(=O)[C@H](CSSC[C@@H](C(=O)N[C@@H](CCCCN)C(=O)N[C@@H](Cc2ccc(O)cc2)C(=O)N[C@H](C(=O)N[C@@H](Cc2ccccc2)C(N)=O)C(C)C)NC(=O)[C@H](Cc2c[nH]c4ccccc24)NC(=O)[C@H](CCCNC(=N)N)NC(=O)[C@H](Cc2cnc[nH]2)NC(=O)[C@H]([C@@H](C)O)NC(=O)[C@H](CCCNC(=N)N)NC(=O)[C@H](CO)NC3=O)NC(=O)[C@H](CCCCN)NC(=O)[C@H](CC(=O)O)NC(=O)[C@H](CC(N)=O)NC(=O)[C@H](CC(=O)O)NC(=O)[C@@H]2CCCN2C1=O` [compound 809] (H-DCLGAFRKCIPDNDKCCRPNLVCSRTHRWCKYVF-NH2; disulfide 2-17, 9-23, 16-30), the IC50 in assay [2] (use-dependent block) stood at 0.3 µM.

The record behind these values is patent publication US9340590B2 (priority 2011, dated 2016).
